In ChEMBL document CHEMBL5726211, “SGC stimulators” (2019):

Experiment: HEK WC Assay: Human embryonic kidney cells (HEK293), endogenously expressing soluble guanylate cyclase (sGC), were used to evaluate the activity of test compounds. Compounds stimulating the sGC receptor should cause an increase in the intracellular concentration of cGMP. HEK 293 cells were seeded in Dulbecco's Modification of Eagle's Medium supplemented with fetal bovine serum (10% final) and L-glutamine (2 mM final) in a 200 μL volume at a density of 1×10^5 cells/well in a poly-D-lysine coated 96 well flat bottom plate and grown overnight at 37° C. Medium was aspirated and cells were washed with 1× Hank's Buffered Saline Salt Solution (200 μL). Cells were then incubated for 15 minutes at 37° C. with 0.5 mM 3-isobutyl-1-methylxanthine (200 μL). Test article and sodium nitroprusside were then added to the assay mixture (2 μL each) and incubated at 37° C. for 10 minutes. After the 10 minute incubation, the assay mixture was aspirated and 0.1M HCl (200 μL) was added to the cells. The plate was incubated at 4° C. for 30 minutes in the 0.1M HCl to stop the reaction and lysed the cells. The plates were then centrifuged at 1,200 g for 5 minutes at room temperature. Supernatants were collected and transferred to a new flat bottom 96 well plate for analysis. Vehicle controls were carried out using DMSO (1%). A known sGC stimulator, BAY 41-2272, was used as the positive control. Samples were diluted with an equal volume of 1 M Ammonium Acetate (pH 7) to neutralize samples for better chromatography. A 2×cGMP standard curve was prepared in 0.1 M HCl and then diluted with an equal volume of 1 M Ammonium Acetate, with the following final concentrations in nM: 1024, 512, 256, 128, 64, 32, 16, 8, 4, 2, 1. cGMP concentrations were determined from each sample using the LC/MS conditions (Table 2 below) and calculated standard curve. EC50 values were calculated from concentration-response curves generated with GraphPad Prism Software.
Type: cell-based

Question: With `Nc1nc(-c2cc(-c3ccon3)n(Cc3ccccc3F)n2)ncc1NC(=O)c1cscn1` as the compound, how does the EC50 read?
Answer: < 20 µM

Question: With `CCOC(=O)c1cnc(-c2cc(-c3ccon3)n(Cc3ccccc3F)n2)nc1O` as the compound, how does the EC50 read?
Answer: 20 to 40 µM

Question: For `CC(C)(F)C(=O)Nc1cnc(-c2cc(-c3ccon3)n(Cc3ccccc3F)n2)nc1N`, which EC50 is on record?
Answer: < 20 µM

Question: Which EC50 does the source give for `Nc1nc(-c2cc(-c3ccon3)n(Cc3ccccc3F)n2)ncc1NC(=O)C1CC2C=CC1C2` (stereo unspecified) here?
Answer: < 20 µM

Question: For `Nc1nc(-c2cc(-c3ncco3)n(Cc3ccccc3F)n2)ncc1NC(=O)C1(C(F)(F)F)CC1`, which EC50 is on record?
Answer: < 20 µM

Question: With `CN(C)c1ccccc1C(=O)Nc1cnc(-c2cc(-c3ccon3)n(Cc3ccccc3F)n2)nc1N` as the compound, how does the EC50 read?
Answer: 40 to 60 µM

Question: With `Nc1nc(-c2cc(-c3ccon3)n(Cc3ccccc3F)n2)ncc1NC(=O)c1cccc(OC(F)(F)F)c1` as the compound, how does the EC50 read?
Answer: < 20 µM

Question: For `COc1ccc(C(=O)Nc2cnc(-c3cc(-c4ccon4)n(Cc4ccccc4F)n3)nc2N)cc1`, which EC50 is on record?
Answer: < 20 µM

Question: With `Cc1cccc(C)c1C(=O)Nc1cnc(-c2cc(-c3ccon3)n(Cc3ccccc3F)n2)nc1N` as the compound, how does the EC50 read?
Answer: < 20 µM

Question: For `[C-]#[N+]C1(C(=O)Nc2cnc(-c3cc(-c4ccon4)n(Cc4ccccc4F)n3)nc2N)CC1`, which EC50 is on record?
Answer: < 20 µM

Question: For `[C-]#[N+]c1cc(-c2ccccn2)nn1Cc1ccccc1F`, which EC50 is on record?
Answer: 30 µM
